Measurements published in patent publication US20250313549A1, “HERBICIDAL DERIVATIVES” (SYNGENTA CROP PROTECTION AG, priority 2021, published 2025).

Key:
Type in all cases: in vivo
[1] = test system: Amaranthus palmeri (AMAPA); assay: Post-emergence test, herbicidal damage; conditions: sprayed after 8 days cultivation, 1000 g/ha, evaluated after 13 days
Experimental: (§1) Seeds of a variety of test species are sown in standard soil in pots (Amaranthus retoflexus (AMARE), Echinochloa crus-galli (ECHCG), Amaranthus palmeri (AMAPA), Setaria faberi (SETFA), Zea mays (ZEAMX), Ipomoea hederacea (IPOHE)). After 8 days cultivation under controlled conditions in a glasshouse (at 24° C./16° C., day/night; 14 hours light; 65% humidity), the plants are sprayed with an aqueous spray solution derived from the formulation of the technical active ingredient in acetone/water (50:50) solution containing 0.5% Tween 20 (polyoxyethylene sorbitan monolaurate, CAS RN 9005-64-5). Compounds are applied at 1000 g/ha unless otherwise stated. The test plants are then grown in a glasshouse under controlled conditions in a glasshouse (at 24° C./16° C., day/night; 14 hours light; 65% humidity) and watered twice daily. After 13 days the test is evaluated for the percentage damage caused to the plant. The biological activities are shown in the following table on a five-point scale (5=81-100%; 4=61-80%; 3=41-60%; 2=21-40%; 1=10-20%; 0=0%; -=not tested).

[2] = test system: Amaranthus retoflexus (AMARE); assay: Post-emergence test, herbicidal damage; conditions: sprayed after 8 days cultivation, 1000 g/ha, evaluated after 13 days
Experimental: as §1

[3] = test system: Echinochloa crus-galli (ECHCG); assay: Post-emergence test, herbicidal damage; conditions: sprayed after 8 days cultivation, 1000 g/ha, evaluated after 13 days
Experimental: as §1

[4] = test system: Ipomoea hederacea (IPOHE); assay: Post-emergence test, herbicidal damage; conditions: sprayed after 8 days cultivation, 1000 g/ha, evaluated after 13 days
Experimental: as §1

Setaria faberi (SETFA) = assay: Post-emergence test, herbicidal damage; conditions: sprayed after 8 days cultivation, 1000 g/ha, evaluated after 13 days
Experimental: as §1

Zea mays (ZEAMX) [5] = assay: Post-emergence test, herbicidal damage; conditions: sprayed after 8 days cultivation, 1000 g/ha, evaluated after 13 days
Experimental: as §1

[6] = test system: Amaranthus retoflexus (AMARE); assay: Pre-emergence test, herbicidal damage; conditions: 1000 g/ha, evaluated after 13 days
[7] = test system: Echinochloa crus-galli (ECHCG); assay: Pre-emergence test, herbicidal damage; conditions: 1000 g/ha, evaluated after 13 days
[8] = test system: Amaranthus palmeri (AMAPA); assay: Pre-emergence test, herbicidal damage; conditions: 1000 g/ha, evaluated after 13 days
Zea mays (ZEAMX) [9] = assay: Pre-emergence test, herbicidal damage; conditions: 1000 g/ha, evaluated after 13 days
[10] = test system: Ipomoea hederacea (IPOHE); assay: Pre-emergence test, herbicidal damage; conditions: 1000 g/ha, evaluated after 13 days

Structure (SMILES)	percentage damage caused to the plant, AMAPA [1]	percentage damage caused to the plant, AMARE [2]	percentage damage caused to the plant, ECHCG [3]	percentage damage caused to the plant, IPOHE [4]	percentage damage caused to the plant, SETFA (Setaria faberi (SETFA))	percentage damage caused to the plant, ZEAMX (Zea mays (ZEAMX) [5])	percentage damage caused to the plant, AMARE [6]	percentage damage caused to the plant, ECHCG [7]	percentage damage caused to the plant, AMAPA [8]	percentage damage caused to the plant, ZEAMX (Zea mays (ZEAMX) [9])	percentage damage caused to the plant, IPOHE [10]
CCOC(=O)c1nn(-c2cncc(Cl)c2)c2cccc(Br)c2c1=O [Compound 5, ethyl 5-bromo-1-(5-chloro-3-pyridyl)-4-oxo-cinnoline-3-carboxylate]	1 (1=10-20%)	1 (1=10-20%)	2 (2=21-40%)	1 (1=10-20%)	2 (2=21-40%)	1 (1=10-20%)	–	–	–	–	–
CCOC(=O)c1nn(-c2ccnc(OC(F)F)c2)c2cccc(C(C)=O)c2c1=O [Compound 40, ethyl 5-acetyl-1-[2-(difluoromethoxy)-4-pyridyl]-4-oxo-cinnoline-3-carboxylate]	0 (0=0%)	1 (1=10-20%)	4 (4=61-80%)	1 (1=10-20%)	1 (1=10-20%)	–	0 (0=0%)	3 (3=41-60%)	0 (0=0%)	0 (0=0%)	0 (0=0%)
CCOC(=O)c1nn(-c2ccc(F)nc2)c2cccc(C#N)c2c1=O [Compound 11, ethyl 5-cyano-1-(6-fluoro-3-pyridyl)-4-oxo-cinnoline-3-carboxylate]	0 (0=0%)	0 (0=0%)	2 (2=21-40%)	0 (0=0%)	0 (0=0%)	1 (1=10-20%)	–	–	–	–	–
CCOC(=O)c1nn(-c2ncc(Cl)cc2C#N)c2cccc(Br)c2c1=O [Compound 33, ethyl 5-bromo-1-(5-chloro-3-cyano-2-pyridyl)-4-oxo-cinnoline-3-carboxylate]	–	0 (0=0%)	1 (1=10-20%)	1 (1=10-20%)	1 (1=10-20%)	0 (0=0%)	–	–	–	–	–
CCOC(=O)c1nn(-c2cncnc2)c2cccc(Br)c2c1=O [Compound 8, ethyl 5-bromo-4-oxo-1-pyrimidin-5-yl-cinnoline-3-carboxylate]	0 (0=0%)	0 (0=0%)	0 (0=0%)	0 (0=0%)	0 (0=0%)	0 (0=0%)	–	–	–	–	–
CCOC(=O)c1nn(-c2cnc(OC)c(F)c2)c2cccc(Br)c2c1=O [Compound 22, ethyl 5-bromo-1-(5-fluoro-6-methoxy-3-pyridyl)-4-oxo-cinnoline-3-carbox-ylate]	0 (0=0%)	0 (0=0%)	0 (0=0%)	0 (0=0%)	0 (0=0%)	0 (0=0%)	–	–	–	–	–
CCOC(=O)c1nn(-c2ccc(C(F)F)nc2)c2cccc(Br)c2c1=O [Compound 30, ethyl 5-bromo-1-[6-(difluoromethyl)-3-pyridyl]-4-oxo-cinnoline-3-carboxylate]	1 (1=10-20%)	1 (1=10-20%)	4 (4=61-80%)	2 (2=21-40%)	0 (0=0%)	–	0 (0=0%)	2 (2=21-40%)	0 (0=0%)	0 (0=0%)	0 (0=0%)
CCOC(=O)c1nn(-c2ccnc(Cl)c2)c2cccc(Br)c2c1=O [Compound 3, ethyl 5-bromo-1-(2-chloro-4-pyridyl)-4-oxo-cinnoline-3-carboxylate]	1 (1=10-20%)	2 (2=21-40%)	2 (2=21-40%)	0 (0=0%)	0 (0=0%)	0 (0=0%)	–	–	–	–	–
CCOC(=O)c1nn(-c2ccnc(OC(F)F)c2)c2cccc(Br)c2c1=O [Compound 38, ethyl 5-bromo-1-[2-(difluoromethoxy)-4-pyridyl]-4-oxo-cinnoline-3-carboxylate]	1 (1=10-20%)	2 (2=21-40%)	0 (0=0%)	2 (2=21-40%)	1 (1=10-20%)	–	–	–	–	–	–
CCOC(=O)c1nn(-c2ccnc(OC)c2)c2cccc(Br)c2c1=O [Compound 9, ethyl 5-bromo-1-(2-methoxy-4-pyridyl)-4-oxo-cinnoline-3-carboxylate]	1 (1=10-20%)	1 (1=10-20%)	1 (1=10-20%)	0 (0=0%)	0 (0=0%)	1 (1=10-20%)	–	–	–	–	–
CCOC(=O)c1nn(-c2cnc(OC)c(C)c2)c2cccc(Br)c2c1=O [Compound 29, ethyl 5-bromo-1-(6-methoxy-5-methyl-3-pyridyl)-4-oxo-cinnoline-3-carboxylate]	1 (1=10-20%)	2 (2=21-40%)	1 (1=10-20%)	2 (2=21-40%)	0 (0=0%)	–	–	–	–	–	–
CCOC(=O)c1nn(-c2ccc(OC)nc2)c2cccc(Br)c2c1=O [Compound 4, ethyl 5-bromo-1-(6-methoxy-3-pyridyl)-4-oxo-cinnoline-3-carboxylate]	1 (1=10-20%)	2 (2=21-40%)	0 (0=0%)	0 (0=0%)	0 (0=0%)	0 (0=0%)	–	–	–	–	–
CCOC(=O)c1nn(-c2ccc(OC(F)F)nc2)c2cccc(C#N)c2c1=O [Compound 35, ethyl 5-cyano-1-[6-(difluoromethoxy)-3-pyridyl]-4-oxo-cinnoline-3-carboxylate]	1 (1=10-20%)	1 (1=10-20%)	0 (0=0%)	1 (1=10-20%)	0 (0=0%)	–	–	–	–	–	–
CCOC(=O)c1nn(-c2cnc3c(c2)OC(F)(F)O3)c2cccc(Br)c2c1=O [Compound 24, ethyl 5-bromo-1-(2,2-difluoro-[1,3]dioxolo[4,5-b]pyridin-6-yl)-4-oxo-cinnoline-3-carboxylate]	0 (0=0%)	0 (0=0%)	2 (2=21-40%)	0 (0=0%)	2 (2=21-40%)	1 (1=10-20%)	–	–	–	–	–
